pIC50, pKi: −log10 of the molar value. Structures can show the parent of a compound that is named as a salt.
Tests used:
[1] = target: T1, PDGFRβ (Homo sapiens (Human), UniProt P09619); assay: PDGF-BB induced phosphorylation of PDGFRβ in fibroblasts (MRC5, HTRF); assay type: cell-based; settings: MRC5 cells, PDGFBB stimulation; read-out: PDGFBB-induced PDGFRβ phosphorylation in MRC5 cells (IC50)
[2] = target: T1, PDGFRβ; assay: PDGFRβ enzyme inhibition (ADP-Glo assay); assay type: biochemical; settings: mean, n = 2 (nintedanib n = 34)
[3] = test system: MRC5 cells; assay: Cell viability assay in MRC5 cells (MTT)
[4] = PAMPA permeability assay; assay type: in vitro ADME; settings: pH 7, PAMPA; for Papp at 5 h, 10 µM: pH 7, 10 μM

T1 sequence (P09619 33-1106): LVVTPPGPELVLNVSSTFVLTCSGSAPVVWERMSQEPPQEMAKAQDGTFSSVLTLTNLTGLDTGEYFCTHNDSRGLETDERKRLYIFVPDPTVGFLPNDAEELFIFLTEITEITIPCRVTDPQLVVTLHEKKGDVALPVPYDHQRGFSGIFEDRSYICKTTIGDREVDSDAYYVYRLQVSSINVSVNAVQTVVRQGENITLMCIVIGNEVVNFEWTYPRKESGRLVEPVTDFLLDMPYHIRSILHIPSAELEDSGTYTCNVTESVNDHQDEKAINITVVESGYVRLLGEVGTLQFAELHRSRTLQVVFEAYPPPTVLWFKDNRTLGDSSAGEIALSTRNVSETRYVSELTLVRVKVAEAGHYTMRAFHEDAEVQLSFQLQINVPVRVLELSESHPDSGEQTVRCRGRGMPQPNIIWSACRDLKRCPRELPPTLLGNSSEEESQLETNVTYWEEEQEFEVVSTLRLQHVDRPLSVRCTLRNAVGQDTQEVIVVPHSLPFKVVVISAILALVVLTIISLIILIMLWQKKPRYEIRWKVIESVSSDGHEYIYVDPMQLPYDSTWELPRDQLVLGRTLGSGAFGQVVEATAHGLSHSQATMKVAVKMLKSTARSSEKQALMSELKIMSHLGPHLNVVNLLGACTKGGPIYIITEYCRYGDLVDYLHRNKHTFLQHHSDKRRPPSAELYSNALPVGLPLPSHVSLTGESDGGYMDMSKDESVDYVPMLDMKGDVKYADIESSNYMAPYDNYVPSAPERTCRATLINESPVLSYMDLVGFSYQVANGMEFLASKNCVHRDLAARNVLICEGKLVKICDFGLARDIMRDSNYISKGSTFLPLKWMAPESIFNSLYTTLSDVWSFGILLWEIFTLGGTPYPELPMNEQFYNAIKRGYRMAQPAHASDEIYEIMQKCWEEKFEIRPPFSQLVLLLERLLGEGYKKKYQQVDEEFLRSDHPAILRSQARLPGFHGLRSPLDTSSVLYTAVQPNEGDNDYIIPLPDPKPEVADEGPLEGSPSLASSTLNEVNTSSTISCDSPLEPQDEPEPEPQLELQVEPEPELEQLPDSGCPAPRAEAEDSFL

SMILES | pIC50 [1] | pKi [2] | Cell viability at 100 nM (%) [3] [%] | Cell viability at 300 nM (%) [3] [%] | Cell viability at 1000 nM (%) [3] [%] | recovery at 5 hr, 10 μM [4] [%] | Papp at 5 h, 10 µM [4] [×10⁻⁶ cm/s]
COC(=O)c1cc2c(cc1C)/C(=C(/Nc1ccc(C(=O)NCCCN3CCOCC3)cc1)c1ccccc1)C(=O)N2 [Example 29, (Z)-Methyl 5-methyl-3-(((4-((3-morpholinopropyl)carbamoyl)phenyl)amino)(phenyl)methylene)-2-oxoindoline-6-carboxylate] | 8.44 | 7.95 | 116.9 | 72.5 | 60.8 | 72.1 | 0.373
COC(=O)c1cc2c(cc1C)/C(=C(/Nc1ccc(C(=O)N3CCC4(CC3)C(=O)NCCN4C)cc1)c1ccccc1)C(=O)N2 [Example 30, (Z)-Methyl 5-methyl-3-(((4-(1-methyl-5-oxo-1,4,9-triazaspiro[5.5]undecane-9-carbonyl)phenyl)amino)(phenyl)methylene)-2-oxoindoline-6-carboxylate] | 8.22 | 8.00 | 107.2 | 85.3 | 16.4 | 87.2 | 0.0235
COC(=O)c1cc2c(cc1C)/C(=C(/Nc1ccc(C(=O)N3CCC(C(=O)NCCN(C)C)CC3)cc1)c1ccccc1)C(=O)N2 [Example 31, (Z)-Methyl 3-(((4-(4-((2-(dimethylamino)ethyl)carbamoyl)piperidine-1-carbonyl)phenyl)amino)(phenyl)methylene)-5-methyl-2-oxoindoline-6-carboxylate, 0.4 formate] | 8.26 | 8.32 | 69.3 | 47.3 | 34.3 | 66.2 | 0.00531
COC(=O)c1cc2c(cc1C)/C(=C(/Nc1ccc(C(=O)N(CCO)CCN(C)C)cc1)c1ccccc1)C(=O)N2 [Example 32, (Z)-Methyl 3-(((4-((2-(dimethylamino)ethyl)(2-hydroxyethyl)carbamoyl)phenyl)amino)(phenyl)methylene)-5-methyl-2-oxoindoline-6-carboxylate, 0.3 formate] | 8.34 | 8.30 | 99.3 | 129.3 | 49.4 | 59.6 | 0.0217
COC(=O)c1cc2c(cc1C)/C(=C(/Nc1ccc(C(=O)N3CC[C@@H](CN(C)C)[C@H](O)C3)cc1)c1ccccc1)C(=O)N2 [Example 33, (Z)-Methyl 3-(((4-((3S,4S)-4-((dimethylamino)methyl)-3-hydroxypiperidine-1-carbonyl)phenyl)amino)(phenyl)methylene)-5-methyl-2-oxoindoline-6-carboxylate] | 8.63 | 8.17 | 86.6 | 63.1 | 19.8 | 69.1 | 0.0269
COC(=O)c1cc2c(cc1C)/C(=C(/Nc1ccc(C(=O)NCCN3CCCN(C(C)=O)CC3)cc1)c1ccccc1)C(=O)N2 [Example 34, (Z)-Methyl 3-(((4-((2-(4-acetyl-1,4-diazepan-1-yl)ethyl)carbamoyl)phenyl)amino)(phenyl)methylene)-5-methyl-2-oxoindoline-6-carboxylate] | 8.33 | 7.84 | 82.9 | 74.4 | 16.2 | 41.1 | 0.00748
COCCN(C)CCNC(=O)c1ccc(N/C(=C2\C(=O)Nc3cc(C(=O)OC)c(C)cc32)c2ccccc2)cc1 [Example 35, (Z)-Methyl 3-(((4-((2-((2-methoxyethyl)(methyl)amino)ethyl)carbamoyl)phenyl)amino)(phenyl)methylene)-5-methyl-2-oxoindoline-6-carboxylate, 0.5 formate] | 7.76 | 7.77 | 99.8 | 122.5 | 99.1 | 79.2 | 10.7
